Assay results from the NIST ThermoML archive (doi:10.1007/s10765-016-2109-2).

What was measured:
[1] = Liquid, isochoric method
[2] = molar heat capacity at saturation pressure; conditions: Liquid, Vacuum adiabatic calorimetry

CCCCCC[n+]1ccn(C)c1.O=S(=O)([N-]S(=O)(=O)C(F)(F)F)C(F)(F)F
Conditions	mass density, [1] [kg/m3]	molar heat capacity, [2] [J/K/mol]
288.72 K	–	599.09
288.87 K	–	602.23
289.04 K	–	592.83
289.17 K	–	597.31
289.3 K	–	604.91
289.44 K	–	590.59
289.57 K	–	596.41
289.7 K	–	599.99
289.83 K	–	601.78
297.45 K	–	599.54
297.76 K	–	608.04
297.89 K	–	604.46
298.02 K	–	598.65
298.15 K	–	596.41
298.28 K	–	606.25
298.41 K	–	601.78
298.53 K	–	599.99
298.66 K	–	603.57
301.64 K	–	606.7
301.75 K	–	608.94
301.88 K	–	612.52
302.01 K	–	606.7
302.13 K	–	613.41
302.26 K	–	605.81
304.3 K	–	608.49
304.69 K	–	603.12
304.82 K	–	606.7
304.95 K	–	612.52
305.08 K	–	604.46
305.2 K	–	610.73
305.33 K	–	607.6
305.46 K	–	613.41
305.59 K	–	609.39
314.15 K	–	619.68
314.57 K	–	615.2
314.69 K	–	607.6
314.82 K	–	616.99
314.94 K	–	611.62
315.07 K	–	612.52
315.2 K	–	618.33
315.32 K	–	614.75
315.45 K	–	608.94
320.89 K	–	620.12
321.17 K	–	622.81
321.3 K	–	614.75
321.42 K	–	621.02
321.55 K	–	613.41
321.67 K	–	616.99
321.79 K	–	616.1
321.92 K	–	619.23
322.04 K	–	622.36
322.16 K	–	621.02
322.29 K	–	618.33
322.41 K	–	623.7
323.89 K	–	624.15
324.15 K	–	620.57
324.28 K	–	625.49
324.4 K	–	627.73
324.52 K	–	629.07
324.65 K	–	621.47
324.77 K	–	622.81
324.89 K	–	617.89
325.02 K	–	621.02
325.14 K	–	625.05
325.24 K	–	622.36
325.26 K	1344.14	623.7
333.63 K	–	634.44
333.82 K	–	633.99
333.94 K	–	626.83
334.06 K	–	631.76
334.18 K	–	629.07
334.3 K	–	632.65
334.42 K	–	636.68
334.54 K	–	633.1
334.66 K	–	627.28
334.79 K	–	631.31
334.91 K	–	629.97
339.73 K	–	638.92
339.83 K	–	637.13
339.95 K	–	634.89
340.03 K	–	643.39
340.15 K	–	635.78
340.27 K	–	640.7
340.39 K	–	642.05
340.51 K	–	638.47
344.34 K	–	641.6
344.46 K	–	645.63
344.58 K	–	642.49
344.7 K	–	644.73
344.82 K	–	639.36
344.93 K	–	648.31
345.05 K	–	647.42
345.17 K	–	645.18
345.29 K	–	638.47
345.41 K	–	643.84
348.64 K	–	645.18
348.76 K	–	643.84
348.88 K	–	648.31
348.99 K	–	646.97
349.11 K	–	649.65
349.23 K	–	648.76
349.35 K	–	644.73
349.47 K	–	647.42
349.58 K	–	643.39
349.65 K	–	648.31
349.7 K	–	645.63
349.82 K	–	643.39
349.94 K	–	645.63
350.05 K	–	644.73
350.17 K	–	646.97
350.29 K	–	647.86
350.36 K	1323.92	647.42
